Source: PMC9389804 (Journal of Hematology & Oncology, 2022)

Test: safety assessments (adverse events, NCI CTCAE)
Settings: AE resulting in dose interruption
Experimental: Adverse events were assessed continuously and graded according to NCI CTCAE v5.0.18. Complete blood count with differential, serum chemistries, and physical examinations were performed before the study; weekly during Cycles 1 and 2; on alternate weeks in Cycles 3 and 4; and monthly thereafter.

Cc1ccc(C(=O)Nc2ccc(CN3CCN(C)CC3)c(C(F)(F)F)c2)cc1C#Cc1cnc2[nH]ncc2c1 [olverembatinib]
4 (3.1) n (%): Leukopenia (Chronic phase n=127)
1 (0.8) n (%): Acute myocardial infarction (Chronic phase n=127) | Atrial fibrillation (Chronic phase n=127) | Atrial septal defect (Chronic phase n=127) | Chest pain (Chronic phase n=127) | Cholecystitis acute (Chronic phase n=127) | Cholelithiasis (Chronic phase n=127) | Febrile neutropenia (Chronic phase n=127) | Glaucoma (Chronic phase n=127) | Hemorrhoids (Chronic phase n=127) | Hyperglycaemia (Chronic phase n=127) | Hyperuricaemia (Chronic phase n=127) | Hypoesthesia (Chronic phase n=127) | Hyponatremia (Chronic phase n=127) | Increased amylase (Chronic phase n=127) | Increased pulmonary arterial pressure (Chronic phase n=127) | Increased γ-glutamyl transferase (Chronic phase n=127) | Influenza like illness (Chronic phase n=127) | Lacunar infarction (Chronic phase n=127) | Liver disorder (Chronic phase n=127) | Myocardial strain (Chronic phase n=127) | Neutropenia (Chronic phase n=127) | Pain (Chronic phase n=127) | Pain in extremity (Chronic phase n=127) | Peripheral swelling (Chronic phase n=127) | Proteinuria (Chronic phase n=127) | Pulmonary arterial hypertension (Chronic phase n=127) | Pyrexia (Chronic phase n=127) | Refraction disorder (Chronic phase n=127) | Sinus bradycardia (Chronic phase n=127) | Sinus tachycardia (Chronic phase n=127) | Skin mass (Chronic phase n=127) | Superior mesenteric artery syndrome (Chronic phase n=127) | Swelling (Chronic phase n=127) | Upper-respiratory-tract infection (Chronic phase n=127) | Urinary sediment present (Chronic phase n=127)
9 (5.5) n (%): Leukopenia (Total n=165)
3 (2.4) n (%): Anemia (Chronic phase n=127) | Hypertriglyceridaemia (Chronic phase n=127) | Hypocalcemia (Chronic phase n=127) | Increased alanine aminotransferase (Chronic phase n=127) | Increased creatine phosphokinase (Chronic phase n=127)
2 (5.3) n (%): Hypokalemia (Accelerated phase n=38) | Pyrexia (Accelerated phase n=38)
42 (33.1) n (%): Thrombocytopenia (Chronic phase n=127)
4 (2.4) n (%): Hypertriglyceridaemia (Total n=165) | Increased alanine aminotransferase (Total n=165) | Increased creatine phosphokinase (Total n=165)
22 (57.9) n (%): Hematologic (Accelerated phase n=38)
4 (10.5) n (%): Neutropenia (Accelerated phase n=38)
17 (44.7) n (%): Thrombocytopenia (Accelerated phase n=38)
5 (13.2) n (%): Anemia (Accelerated phase n=38) | Leukopenia (Accelerated phase n=38)
44 (34.6) n (%): Hematologic (Chronic phase n=127)
66 (40.0) n (%): Hematologic (Total n=165)
1 (2.6) n (%): Anal abscess (Accelerated phase n=38) | Atrial fibrillation (Accelerated phase n=38) | Hepatocellular injury (Accelerated phase n=38) | Hyperkalemia (Accelerated phase n=38) | Hypertriglyceridaemia (Accelerated phase n=38) | Increased alanine aminotransferase (Accelerated phase n=38) | Increased aspartate aminotransferase (Accelerated phase n=38) | Increased creatine phosphokinase (Accelerated phase n=38) | Iridocyclitis (Accelerated phase n=38) | Musculoskeletal pain (Accelerated phase n=38) | Pulmonary tuberculosis (Accelerated phase n=38) | Rash (Accelerated phase n=38) | Sinus tachycardia (Accelerated phase n=38) | Supraventricular extrasystoles (Accelerated phase n=38) | Upper-respiratory-tract infection (Accelerated phase n=38)
8 (4.8) n (%): Anemia (Total n=165)
1 (0.6) n (%): Acute myocardial infarction (Total n=165) | Anal abscess (Total n=165) | Atrial septal defect (Total n=165) | Chest pain (Total n=165) | Cholecystitis acute (Total n=165) | Cholelithiasis (Total n=165) | Febrile neutropenia (Total n=165) | Glaucoma (Total n=165) | Hemorrhoids (Total n=165) | Hepatocellular injury (Total n=165) | Hyperglycaemia (Total n=165) | Hyperkalemia (Total n=165) | Hyperuricaemia (Total n=165) | Hypoesthesia (Total n=165) | Hyponatremia (Total n=165) | Increased amylase (Total n=165) | Increased pulmonary arterial pressure (Total n=165) | Increased γ-glutamyl transferase (Total n=165) | Influenza like illness (Total n=165) | Iridocyclitis (Total n=165) | Lacunar infarction (Total n=165) | Liver disorder (Total n=165)
0 n (%): Acute myocardial infarction (Accelerated phase n=38) | Atrial septal defect (Accelerated phase n=38) | Chest pain (Accelerated phase n=38) | Cholecystitis acute (Accelerated phase n=38) | Cholelithiasis (Accelerated phase n=38) | Febrile neutropenia (Accelerated phase n=38) | Glaucoma (Accelerated phase n=38) | Hemorrhoids (Accelerated phase n=38) | Hyperbilirubinaemia (Accelerated phase n=38) | Hyperglycaemia (Accelerated phase n=38) | Hyperuricaemia (Accelerated phase n=38) | Hypocalcemia (Accelerated phase n=38) | Hypoesthesia (Accelerated phase n=38) | Hyponatremia (Accelerated phase n=38) | Increased amylase (Accelerated phase n=38) | Increased pulmonary arterial pressure (Accelerated phase n=38) | Increased γ-glutamyl transferase (Accelerated phase n=38) | Influenza like illness (Accelerated phase n=38) | Lacunar infarction (Accelerated phase n=38) | Liver disorder (Accelerated phase n=38) | Myocardial strain (Accelerated phase n=38) | Pain (Accelerated phase n=38) | Pain in extremity (Accelerated phase n=38) | Peripheral swelling (Accelerated phase n=38) | Pneumonia (Accelerated phase n=38) | Proteinuria (Accelerated phase n=38) | Pulmonary arterial hypertension (Accelerated phase n=38) | Refraction disorder (Accelerated phase n=38) | Sinus bradycardia (Accelerated phase n=38) | Skin mass (Accelerated phase n=38) | Superior mesenteric artery syndrome (Accelerated phase n=38) | Swelling (Accelerated phase n=38) | Urinary sediment present (Accelerated phase n=38) | Anal abscess (Chronic phase n=127) | Hepatocellular injury (Chronic phase n=127) | Hyperkalemia (Chronic phase n=127) | Hypokalemia (Chronic phase n=127) | Iridocyclitis (Chronic phase n=127) | Musculoskeletal pain (Chronic phase n=127) | Pericardial effusion (Chronic phase n=127) | Pulmonary tuberculosis (Chronic phase n=127) | Rash (Chronic phase n=127) | Supraventricular extrasystoles (Chronic phase n=127)
3 (1.8) n (%): Hypocalcemia (Total n=165) | Increased aspartate aminotransferase (Total n=165)
2 (1.6) n (%): Hyperbilirubinaemia (Chronic phase n=127) | Increased aspartate aminotransferase (Chronic phase n=127) | Pneumonia (Chronic phase n=127)
2 (1.2) n (%): Atrial fibrillation (Total n=165) | Hyperbilirubinaemia (Total n=165) | Hypokalemia (Total n=165)
14 (36.8) n (%): Nonhematologic (Accelerated phase n=38)
34 (26.8) n (%): Nonhematologic (Chronic phase n=127)
